Source: US10590064B2, “Crystals of alanine N-acetic acid precursors, process to prepare them and their use” (NOURYON CHEMICALS INTERNATIONAL B.V., priority 2014, dated 2020)

Columns and labels:
Type in all cases: physicochemical
pH of 1 wt % in water = experiment: pH of 1 wt % in water
Procedure: Additionally the pH was measured as 1 wt % D,L-alanine diacetonitrile in water and this pH was compared to the pH of 1 wt % […].

[1] = Stability (hydrolysis) of D,L-alanine diacetonitrile in water, aqueous layers analyzed by NMR; conditions: demi-water, closed bottles, overnight at various temperatures
Procedure: (§1) The solubility of D,L-alanine diacetonitrile was determined at various temperatures to get a clear understanding of the solubility and stability of D,L-alanine diacetonitrile. The D,L-alanine diacetonitrile crystals obtained in Example 1 were added to demi-water and the samples in well-closed bottles were placed in ovens/refrigerators at various temperatures overnight.

[2] = Solubility of D,L-alanine diacetonitrile crystals in demi-water at various temperatures; conditions: overnight
Procedure: as §1

| Compound | pH (1% in water) (pH of 1 wt % in water) | Hydrolysis of D,L-alanine diacetonitrile in aqueous layer (NMR) [1] | Solubility, wt % D,L-alanine diacetonitrile ([2]; 0° C.) [wt %] | Solubility, wt % D,L-alanine diacetonitrile ([2]; 5° C.) [wt %] | Solubility, wt % D,L-alanine diacetonitrile ([2]; 20° C.) [wt %] | Solubility, wt % D,L-alanine diacetonitrile ([2]; 30° C.) [wt %] | Solubility, wt % D,L-alanine diacetonitrile ([2]; 40° C.) [wt %] | Solubility, wt % D,L-alanine diacetonitrile ([2]; 50° C.) [wt %] |
| --- | --- | --- | --- | --- | --- | --- | --- | --- |
| CC(C(=O)[O-])N(CC#N)CC#N.[Na+] (racemic) [D,L-alanine diacetonitrile-Na, sodium salt of D,L-alanine diacetonitrile] | pH = 3.3. |  |  |  |  |  |  |  |
| D,L-alanine diacetonitrile | pH = 2.2 | no or very little hydrolysis took place | 6 | 7.9 | 40.7 | 75 | 82.5 | 95 |
